Test results reported in patent US20230212319A1, “NOVEL ANTIGEN BINDING DOMAINS AND SYNTHETIC ANTIGEN RECEPTORS INCORPORATING THE SAME” (University of Southern California, priority 2020, published 2023).

Columns and labels:
RAJI cells = experiment: T cell cytotoxicity against RAJI (Matador assay, Gluc); type: cell-based
Nalm6 cells = experiment: Cytokine ELISA (IFNγ, TNFα, IL-2) after co-culture with Nalm6; type: cell-based; conditions: T cells expanded 7 days with compound, co-cultured with Nalm6 48 h
Description: After 48 h, supernatant was collected and used for measurement of IFNγ, TNFα and IL-2 by ELISA.
Control T cells or SIR-T cells grown in regular flask or G-Rex 6-well plate were cultured with Nalm6-hGLuc 100 K/well/100 ul in 96-well plate U-bottom in XVIVO medium with no additional component. After 48 h co-culture, supernatant was collected and used for ELISA.
The supernatant from the different cell populations were tested for cytokine production upon co-culture with NALM6 cells.

[1] = Flow cytometry of expanded CAR-T/SIR-T cells (Protein L staining, T cell surface markers); type: cell-based, human; conditions: CAR-T and SIR-T cells expanded 7 days with 1 µM
Description: Cells were expanded in XVIVO medium under standard conditions in the presence of IL2 and CD3/CD28 beads in the absence or presence of Birinapant 1 µM for 7 days and. After 7 days, cells were analyzed by flow cytometry for expression of different cell surface markers.
Cells were pelleted and re-suspended in XVIVO-15 (Lonza) T-cell medium supplemented with PSA, 100 IU/ml recombinant human IL2 and Dynabeads Human T-Activator CD3/CD28 and 5% hAB serum.
The cells were analyzed by flow cytometery for expresson of SIR by staining with Protein L and for presence of different T cell markers.
After 13 days of culture, cells were counted and analyzed by flow cytometry.

CC[C@H](NC(=O)[C@H](C)NC)C(=O)N1C[C@@H](O)C[C@H]1Cc1c(-c2[nH]c3cc(F)ccc3c2C[C@@H]2C[C@H](O)CN2C(=O)[C@H](CC)NC(=O)[C@H](C)NC)[nH]c2cc(F)ccc12 [Birinapant]
non-specific killing by uninfected control T cells expanded in presence of SMAC mimetic (RAJI cells; 100 nM or 1 µM, 16 days, RAJI-Gluc, 4 h): no effect | cell killing of RAJI cells by SAR-T cells expanded in presence of SMAC mimetic (RAJI cells; SAR SEQ ID NO: 7348 T cells expanded 16 days with 100 nM or 1 µM, E:T 0.25:1 and 0.5:1, 4 h): dose dependent increase | IFNγ secretion (Nalm6 cells): no significant decrease | IL2 secretion (Nalm6 cells): no significant decrease | TNFα secretion (Nalm6 cells): no significant decrease | CD4 cells [1]: decline | CD62L cells [1]: increase | proportion of CD8 cells [1]: increase
